Measured values: ChEMBL document CHEMBL1177740, “Steroidal saponins from two species of Dracaena” (J Nat Prod, 2010)
pIC50: −log10 of the molar value.

Columns and labels:
HT-29 = experiment: Cytotoxicity against human HT-29 cells by MTT assay; type: functional, cell-based
HCT-116 = experiment: Cytotoxicity against human HCT116 cells by MTT assay; type: functional, cell-based

SMILES	pIC50 (HT-29)	pIC50 (HCT-116)
C[C@@H]1CC[C@]2(OC1)O[C@H]1C[C@H]3[C@@H]4CC=C5C[C@@H](O[C@@H]6O[C@H](CO)[C@@H](O)[C@H](O[C@@H]7O[C@@H](C)[C@H](O)[C@@H](O)[C@H]7O)[C@H]6O[C@@H]6O[C@@H](C)[C@H](O)[C@@H](O)[C@H]6O)CC[C@]5(C)[C@H]4CC[C@]3(C)[C@@]1(O)[C@@H]2C	5.78	5.69
C[C@@H]1O[C@@H](O[C@H]2[C@H](O[C@H]3CC[C@@]4(C)C(=CC[C@@H]5[C@@H]4CC[C@@]4(C)[C@H]5C[C@@H]5O[C@@]6(C[C@@H](O)[C@@H](C)CO6)[C@@H](C)[C@@]54O)C3)O[C@H](CO)[C@@H](O)[C@@H]2O[C@@H]2O[C@@H](C)[C@H](O)[C@@H](O)[C@H]2O)[C@H](O)[C@H](O)[C@H]1O [ARBOREASAPONIN B]	4.00	4.00
C[C@@H]1CC[C@@]2(OC1)O[C@H]1C[C@H]3[C@@H]4CC=C5C[C@@H](O[C@@H]6O[C@H](CO)[C@@H](O)[C@H](O[C@@H]7O[C@@H](C)[C@H](O)[C@@H](O)[C@H]7O)[C@H]6O)CC[C@]5(C)[C@H]4CC[C@]3(C)[C@@]1(O)[C@@H]2C [MANIOSIDE A]	4.25	4.37
CC(=O)OC[C@H]1O[C@@H](O[C@H]2CC[C@@]3(C)C(=CC[C@@H]4[C@@H]3CC[C@@]3(C)[C@H]4C[C@@H]4O[C@@]5(CC[C@@H](C)CO5)[C@@H](C)[C@@]43O)C2)[C@H](O[C@@H]2O[C@@H](C)[C@H](O)[C@@H](O)[C@H]2O)[C@@H](O[C@@H]2O[C@@H](C)[C@H](O)[C@@H](O)[C@H]2O)[C@@H]1O [ARBOREASAPONIN A]	5.07	5.12
C=C1CO[C@]2(O[C@H]3C[C@H]4[C@@H]5CC=C6C[C@@H](O)C[C@@H](O[C@@H]7O[C@H](C)[C@H](O)[C@H](O[C@@H]8O[C@@H](C)[C@H](O)[C@@H](O)[C@H]8O)[C@H]7O[C@@H]7OC[C@@H](O)[C@H](O)[C@H]7O)[C@]6(C)[C@H]5CC[C@]4(C)[C@H]3[C@@H]2C)[C@@H](O)[C@H]1O[C@@H]1OC[C@H](O)[C@H](O)[C@H]1O [DEISTELIANOSIDE B]	4.15	4.67
C=C1CO[C@@]2(O[C@H]3C[C@H]4[C@@H]5CC=C6C[C@@H](O)C[C@@H](O[C@@H]7OC[C@H](O)[C@H](O[C@@H]8OC[C@@H](O)[C@H](O)[C@H]8O[C@@H]8O[C@@H](C)[C@H](O)[C@@H](O)[C@H]8O)[C@H]7O)[C@]6(C)[C@H]5CC[C@]4(C)[C@H]3[C@@H]2C)[C@@H](O)[C@H]1O[C@@H]1OC[C@H](O)[C@H](O)[C@H]1O	4.53	4.54
CC(=O)O[C@H]1C(=O)[C@@]2(C)[C@H]([C@H](OC(=O)c3ccccc3)[C@]3(O)C[C@H](OC(=O)[C@H](O)[C@@H](NC(=O)c4ccccc4)c4ccccc4)C(C)=C1C3(C)C)[C@]1(OC(C)=O)CO[C@@H]1C[C@@H]2O [PACLITAXEL]	8.85	8.49
